Reference: patent US5236914A, “Derivatives of metalloporphyrins and application thereof for therapeutic purposes and in preparing hybrid molecules” (Centre National de la Recherche Scientifique (CNRS), priority 1988, dated 1993)
“Also recorded” adds a separate entry of the source. Read-outs that look alike come from different tables or passages of the source.

What was measured:
[1] = system: supercoiled form (form I) of the DNA of the bacteriophage OX 174; assay: nuclease activity: cleavage of supercoiled DNA observed by electrophoresis on agarose gel; format: biochemical; details: for Form I / Form II / Form III: 2 min with oxidant
Protocol: In fact, only 13% of form I remains at the end of 2 min in the presence of 250 nM of the metalloporphyrin and 5 μM of potassium hydrogen persulfate, KHSO5. The cleavages are single-strandcleavages since the form II (circular duplex DNA with one cleavage) accumulates before being converted to form III (linear duplex DNA). The experimental conditions and the details of the analytical method are given in the reference Fouquet et al. (cf. page 1).
1 μM of metalloporphyrin
pre-incubation time (DNA +
a) 20 min., b) 1 min. time of incubation

L1210 cells = assay: cytotoxic activity on murine leukemia cells of the L1210 type (inhibition of cell growth); format: cell-based; details: in vitro, only ID50 lower than 2 μM considered significant, read-out: ID50 (dose inhibiting 50% of cell growth)
Protocol: The cytotoxic activity was determined on murine leukemia cells of the L1210 type according to a method already described (by C. Paoletti, S. Cros eta al., Chem. Bio. Interact, 25, 45 […]. The effect on cell growth is expressed in terms of the dose inhibiting 50% of cell growth (ID50). Only the values of ID50 lower than 2 μM can be considered as being significant from the biological point of view.

DNA = details: in the presence of ferric ions, molecular oxygen and reducers; cited from earlier work
[2] = 250 nM metalloporphyrin; 5 μM KHSO5; pre-incubation a) 20 min
[3] = 250 nM metalloporphyrin; 5 μM KHSO5; pre-incubation b) 1 min
[4] = 1 μM metalloporphyrin; 5 μM KHSO5; pre-incubation a) 20 min

CC(=O)[O-].CC(=O)[O-].CC(=O)[O-].CC(=O)[O-].CC(=O)[O-].C[n+]1ccc(-c2c3nc(c(-c4cc[n+](C)cc4)c4ccc([n-]4)c(-c4cc[n+](C)cc4)c4nc(c(-c5ccc([N+](C)(C)C)cc5)c5ccc2[n-]5)C=C4)C=C3)cc1.[Mn+3] [1 h) (Mn), Manganese (III) 5-(4-trimethylaminophenyl)-10, 15, 20-tris (N-methyl-4 pyridyl)-porphyrin pentaacetate]
Form I [1, 2]: 13%
Form II [1, 2]: 78%
Form III [1, 2]: 9%
Form I [1, 3]: 63%
Form II [1, 3]: 37%
form I remaining at the end of 2 min ([1]; 250 nM metalloporphyrin, 5 μM potassium hydrogen persulfate KHSO5): 13%
Form II [1, 4]: 59%
Form III [1, 4]: 41%
efficacy of cleavage / nuclease activity in words ([1]; DNA in vitro, listed as 1h): very marked; also recorded: single-strandcleavages
IC50 (L1210 cells): 540 nM

COc1ccc2[nH]c3c(C)c4cc[n+](CCCCC(=O)O)cc4c(C)c3c2c1 [5 b), N^2-(4-carboxybutyl)-9-methoxy-ellipticinium chloride]
IC50 (L1210 cells; Mus musculus): > 23000 nM

Manganese (III) 5-(4-hydroxyphenyl)-10, 15, 20-tris (N-methyl-4-pyridyl)-porphyrin tetraacetate [2 n) (Mn)]
IC50 (L1210 cells): 680 nM

bleomycin
nuclease activity in words (DNA): high nuclease activity
